Measured values from patent US9976141B2, “Compositions and methods for inhibiting gene expression of Hif2alpha” (Arrowhead Madison Inc., priority 2015, dated 2018).
“And” between values parts separate entries of the source, which are not always exact repeats. Equal entries are not always repeated.

How the values were obtained:
[1] = test system: human (tumor) Hif2α (EPAS1) mRNA; test: Hif2α expression in RCC tumor bearing mice after single injection of RGD targeted conjugates, 72 h, RT-qPCR (Table 11); format: in vivo
Description: Female athymic nude mice were anesthetized with ˜3% isoflourane and placed in the right lateral decubitus position. A small, 0.5-1 cm, longitudinally abdominal incision in the left flank was made. Using a moist cotton swab, the left kidney was lifted out of the peritoneum and gently stabilized. Just before injection, a 1.0 ml syringe was filled with the cell/Matrigel mixture and a 27 gauge needle catheter was attached to the syringe tip. The filled syringe was then attached to a syringe pump (Harvard Apparatus, model PHD2000) and primed to remove air. The tip of a 27-gauge needle catheter attached to a syringe was inserted just below the renal capsule near the caudal pole and the tip of the needle was then carefully advanced cranially along the capsule 3-4 mm. A 10 μl aliquot of 2:1 (vol:vol) cell/matrigel mixture containing about 300,000 cells was slowly injected into the kidney parenchyma using a syringe pump. The needle was left in the kidney for 15-20 seconds to ensure the injection was complete. The needle was then removed from the kidney and a cotton swab was placed over the injection site for 30 seconds to prevent leakage of the cells or bleeding. The kidney was then gently placed back into the abdomen and the abdominal wall was closed. Serum was collected every 7-14 days after implantation to monitor tumor growth using a commercial SEAP assay kit. For most studies, tumor mice were used 5-6 weeks after implantation, when tumor measurements were typically around 4-8 mm.
In preparation for quantitative PCR, total RNA was isolated from tissue samples homogenized in TriReagent (Molecular Research Center, Cincinnati, Ohio) following the manufacturer's protocol. Approximately 500 ng RNA was reverse-transcribed using the High Capacity cDNA Reverse Transcription Kit (Life Technologies). For human (tumor) Hif2α (EPAS1) expression, pre-manufactured TaqMan gene expression assays for human Hif2α (Catalog #4331182) and CycA (PPIA) Catalog #: 4326316E) were used in biplex reactions in triplicate using TaqMan Gene Expression Master Mix (Life Technologies) or VeriQuest Probe Master Mix (Affymetrix). For human (tumor) VegFa (VEGFA) expression, pre-manufactured TaqMan gene expression assays for human VegFa (Catalog #4331182, Assay ID: Hs00900055) and CycA (Part#: 4326316E) were used in biplex reactions in triplicate using TaqMan Gene Expression Master Mix (Life Technologies) or VeriQuest Probe Master Mix (Affymetrix). Quantitative PCR was performed by using a 7500 Fast or StepOnePlus Real-Time PCR system (Life Technologies). The ΔΔCT method was used to calculate relative gene expression.
RGD targeted HiF2α-RNAi trigger delivery polymer conjugates were formed using polymer 126, 100A, or 006. The RNAi trigger, μg indicates the quantity of trigger reacted with polymer. The polymer was modified with the indicated RGD mimic and PEG modifying agents as described above. Kidney RCC tumor-bearing mice were generated as described and treated with a single tail vein injection of isotonic glucose (G1) or the indicated Hif2α RNAi trigger-delivery polymer conjugate. Mice were euthanized 72 h (day 4) after injection and total RNA was prepared from kidney tumor using Trizol reagent following manufacturer's recommendation. Relative HiF2α mRNA levels were determined by RT-qPCR as described and compared to mice treated with delivery buffer (isotonic glucose) only (Table 11).

[2] = test system: human (tumor) Hif2α (EPAS1) mRNA; test: Hif2α knockdown in orthotopic RCC tumor bearing mice, single injection of RNAi trigger-delivery polymer conjugate, RT-qPCR (Table 7); format: in vivo; conditions: single tail vein injection, relative to isotonic glucose
Outline: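 A single intravenous dose of Hif2α RNAi trigger–delivery polymer conjugate, or isotonic glucose vehicle, was given to nude mice with subcapsular A498-SEAP renal tumours (about 5–6 weeks old). At the indicated time, tumour RNA was assayed by biplex TaqMan qPCR against CycA, and relative expression was calculated by ΔΔCT versus vehicle.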

For “AD01214 (antisense TUUCAUGAAAUCGUUACGUTT; sense ACGUAACGAUUUCAUGAAAT; Hif2alpha RNAi agent antisense strand; modified_base 2,4,6,8,10,12,14,16,18 /mod_base = “2′-deoxy-2′-fluoro corresponding nucleoside”; modified_base 3,5,7,9,11,13,15,17,19 /mod_base = “2′-O-methyl corresponding nucleoside”; modified_base 21 /mod_base = “5′-phosphorothioate corresponding nucleotide”; Hif2alpha RNAi agent sense strand; modified_base 1,3,5,7,9,11,13,15,17,19 /mod_base = “2′-deoxy-2′-fluoro corresponding nucleoside”; modified_base 2,4,6,8,10,12,14,16,18 /mod_base = “2′-O-methyl corresponding nucleoside”; modified_base 20 /mod_base = “3′-3′-linked nucleotide”; modified_base 1 /mo)”, the “Relative Expression day 4 (Hif2α)” value ([1]; trigger 80 μg, polymer 126 280 μg, TFF, RGD-PEG8-HyNic 0.5×, PEG12-FCit-PABC-PNP) was 0.489, the “Relative Expression day 4 (Hif2α)” value ([1]; trigger 80 μg, polymer 126 280 μg, RGD-PEG8-ACit-PABC-PNP 0.4×, PEG6-ACit-PABC-PNP) was 0.360 and the “Relative Expression day 4 (Hif2α)” value ([1]; trigger 80 μg, polymer 126 280 μg, RGD-PEG8-ACitFP-NHS 1×, PEG6-ACit-PABC-PNP) was 0.288. The “Relative Expression day 4 (Hif2α)” value ([1]; trigger 80 μg, polymer 126 280 μg, RGD-PEG8-HyNic 0.5×, PEG12-FCitFP-TFP) was 0.210, the “Relative Expression day 4 (Hif2α)” value ([1]; trigger 112.5 μg, polymer 006 300 μg, RGD-PEG8-HyNic, PEG12-ACit-PABC-PNP) was 0.357 and the “Relative Expression day 4 (Hif2α)” value ([1]; trigger 112.5 μg, polymer 100A 375 μg, TFF, RGD-PEG15-FCitFP-TFP 0.5×, no. 10.8, PEG12-ACit-PABC-PNP) was 0.193. The “Relative Expression day 4 (Hif2α)” value ([1]; trigger 112.5 μg, polymer 100A 375 μg, TFF, RGD-PEG15-FCitFP-TFP 1×, no. 16.1, PEG12-ACit-PABC-PNP) was 0.182, the “Relative Expression day 4 (Hif2α)” value ([1]; trigger 112.5 μg, polymer 100A 375 μg, TFF, RGD-PEG15-FCitFP-TFP 2×, no. 29.0, PEG12-ACit-PABC-PNP) was 0.182 and the “Relative Expression day 4 (Hif2α)” value ([1]; trigger 112.5 μg, polymer 100A 375 μg, TFF, RGD-PEG19-FCitFP-TFP 0.5×, no. 10.7, PEG12-ACit-PABC-PNP) was 0.163. The “Relative Expression day 4 (Hif2α)” value ([1]; trigger 112.5 μg, polymer 100A 375 μg, TFF, RGD-PEG19-FCitFP-TFP 1×, no. 18.5, PEG12-ACit-PABC-PNP) was 0.114, the “Relative Expression day 4 (Hif2α)” value ([1]; trigger 112.5 μg, polymer 100A 375 μg, TFF, RGD-PEG19-FCitFP-TFP 2×, no. 31.1, PEG12-ACit-PABC-PNP) was 0.182 and the “Relative Expression day 4 (Hif2α)” value ([1]; trigger 112.5 μg, polymer 100A 375 μg, TFF, RGD-PEG20-FCitFP-TFP 0.125×, no. 1.9, PEG12-ACit-PABC-PNP) was 0.169. The “Relative Expression day 4 (Hif2α)” value ([1]; trigger 112.5 μg, polymer 100A 375 μg, TFF, RGD-PEG20-FCitFP-TFP 0.25×, no. 3.4, PEG12-ACit-PABC-PNP) was 0.168, the “Relative Expression day 4 (Hif2α)” value ([1]; trigger 112.5 μg, polymer 100A 375 μg, TFF, RGD-PEG20-FCitFP-TFP 0.5×, no. 6.6, PEG12-ACit-PABC-PNP) was 0.130 and the “Relative Expression day 4 (Hif2α)” value ([1]; trigger 112.5 μg, polymer 100A 375 μg, TFF, RGD-PEG20-FCitFP-TFP 1×, no. 12.7, PEG12-ACit-PABC-PNP) was 0.121. The “Relative Expression day 4 (Hif2α)” value ([1]; trigger 112.5 μg, polymer 100A 375 μg, TFF, RGD-PEG20-FCitFP-TFP 1.5×, no. 20.3, PEG12-ACit-PABC-PNP) was 0.135, the “Relative Expression day 4 (Hif2α)” value ([1]; trigger 112.5 μg, polymer 100A 375 μg, RGD-PEG19-FCitFP-TFP 1×, PEG12-ACit-PABC-PNP) was 0.195 and the “Relative Expression day 4 (Hif2α)” value ([1]; trigger 112.5 μg, polymer 100A 375 μg, RGD-PEG19-FCitFP-TFP 1×, PEG12-FCitFP-TFP) was 0.148 and 0.188. For the same substance, the “Relative Expression day 4 (Hif2α)” value ([1]; trigger 115 μg, polymer 100A 375 μg, RGD-PEG8-HyNic 0.5×, PEG12-FCitFP-TFP) was 0.258, the “Relative Expression day 4 (Hif2α mRNA in kidney tumor)” value ([2]; RNAi trigger 80 μg, polymer 126 400 μg) was 0.29 and the “Relative Expression day 4 (Hif2α mRNA in kidney tumor)” value ([2]; RNAi trigger 112.5 μg, polymer 006 300 μg) was 0.36.
